Laboratory results published in patent US20120195862A1, “BIO[…] OF HEMATOPOIESIS” (CHILDREN'S MEDICAL CENTER CORPORATION, priority 2009, published 2012).
Entries after “also recorded” stand apart in the source; their conditions may differ.

Columns and labels:
[1] = test system: ES-derived cells; assay: Methylcellulose hematopoietic colony forming unit (CFU) assay of ES-derived cells exposed to wall shear stress or static culture; type: cell-based, mouse; settings: 2 mM; for number of CFUs in ES-derived cultures in static conditions: static conditions (no shear stress), n=2
Method: Ainv15 CDX4-inducible mouse embryonic stem cells (iCDX4 ES) were cultured on mitomycin-treated Mouse Embryonic Fibroblasts (MEFs) (Chemicon, strain CF-1) and passaged every 2 to 3 days with 0.25% trypsin/EDTA as previously described. Wang et al., 102 P.N.A.S. 19081-86 (2005). To induce differentiation, ES cells were trypsinized, gently dispersed by repetitive pipetting and re-plated for 45 min at 37° C. for MEF depletion. Floating and loosely-adherent cells were gathered, checked for viability with trypan blue, and diluted in Embryoid Body (EB) differentiation media (Iscove's Modified Dulbecco's Medium [IMDM], 10% FCS [STEMCELL Tech., Vancouver, British Columbia, cat #06952], Penicillin 10 units/ml, Streptomycin 10 μg/ml, 1 mM L-Glutamine, Monothiolglycerol 3.8 nl/ml, Fe-saturated transferrin 0.2 mg/ml, Ascorbic Acid 0.5 mg/ml), to a final concentration of 6.7×10^3 cell/ml. EBs were cultured via the hanging drop method in 15 μl drops on 15 cm bacterial dishes. Typically, 100 plates of EBs were used per experiment. After 48 hr, EBs were pooled into calcium and magnesium containing warm PBS and collected by precipitation in 50 ml Falcon tubes. Pooled EBs were transferred to 10 cm tissue culture dishes containing 10 ml of EB differentiation media each, placed on an orbital shaker moving at 75 rev/min, and incubated for an additional 30 hr. Following this second culture phase, day 3.25-EBs were collected by precipitation, washed two times in 30 ml calcium-free PBS and trypsinized for 1 min in a 1:1 dilution of calcium-free PBS and 0.25% Trypsin-EDTA. Trypsinization was blocked by addition of 10 ml EB differentiation media.
More specifically, in the instant approach, plates were coated with a thick layer of 1% gelatin (DIFCO #214340, Becton Dickinson). After 12 hr, cells were washed three times with 10 ml of warm PBS with calcium and incubated for 45 min with EB differentiation media with or without 2 mM N(G)-nitro-L-arginine methyl ester (L-NAME) or 2 mM N(G)-nitro-D-arginine methyl ester (D-NAME) (Sigma-Aldrich). Cells to be moved to the dynamic flow system were incubated in 7 ml of media, and static controls incubated in 20 ml of media. Following 45 min incubation, cells were either moved to the Dynamic Flow System and exposed to shear stress or maintained in a standard cell culture incubator. The shear stress ramped up in a step-wise fashion from 0 dyne/cm^2 to 5 dyne/cm^2 over a period of 12 hr, in order to minimize cell loss during the transition from static to dynamic culture. Following the 12 hr ramping period, the cells were then exposed to a constant 5 dyne/cm^2 shear stress for 36 hr. […]
Methylcellulose assay was performed as previously described and scored on days 8 to 10 post-plating. […]

[2] = test system: Runx1; assay: Quantitative real-time PCR gene expression analysis of Runx1 in ES-derived cells (CD41+/cKit+); type: cell-based, mouse; settings: 2 mM; for Runx1 expression in static cultures of ES-derived cells: static conditions, n=2
Method: More specifically, in the instant approach, plates were coated with a thick layer of 1% gelatin (DIFCO #214340, Becton Dickinson). After 12 hr, cells were washed three times with 10 ml of warm PBS with calcium and incubated for 45 min with EB differentiation media with or without 2 mM N(G)-nitro-L-arginine methyl ester (L-NAME) or 2 mM N(G)-nitro-D-arginine methyl ester (D-NAME) (Sigma-Aldrich). Cells to be moved to the dynamic flow system were incubated in 7 ml of media, and static controls incubated in 20 ml of media. Following 45 min incubation, cells were either moved to the Dynamic Flow System and exposed to shear stress or maintained in a standard cell culture incubator. The shear stress ramped up in a step-wise fashion from 0 dyne/cm^2 to 5 dyne/cm^2 over a period of 12 hr, in order to minimize cell loss during the transition from static to dynamic culture. Following the 12 hr ramping period, the cells were then exposed to a constant 5 dyne/cm^2 shear stress for 36 hr. In cells exposed to shear stress, culture media with or without D-NAME or L-NAME were automatically exchanged and stored at 37° C. and 5% CO2. In static controls, culture medium was replaced after 24 hr and stored in 75 cm^2 flasks in a cell culture incubator. After 48 hr exposure to shear stress or growth under static conditions, cells were detached by 10 min incubation with a 1:1 dilution of Trypsin-Versene mixture (Cambrex, #17-161E) and Hank's Balanced Salt Solution.
Total RNA was extracted with a RNEASY® Micro Kit (QIAGEN, Inc., Valencia, Calif.), according to manufacturer's instructions. For RNA extraction from CD41^+/cKIT^+ cells, approximately 7,000 cells were sorted directly into 300 μl of Lysis Buffer. Reverse transcription of RNA was performed using MULTISCRIBE™ […] (Applied Biosystems, Foster City, Calif.), according to manufacturer's instructions. When processing FACS-sorted cells, RNA was eluted in 20 μl and all collected RNA was used in 50 μl reverse transcription reaction. […]

[3] = test system: hematopoietic progenitors in the aorta-gonad-mesonephros (AGM) region; assay: In vivo colony forming unit (CFU) assay of the AGM region after treating pregnant mice; set-up: species or system mouse; settings: 300 mg/kg i.p. on E8.5 and 24 hr later, E10.5 embryos, versus D-NAME, p=0.0008
Method: Methylcellulose assay was performed as previously described and scored on days 8 to 10 post-plating. Wang et al., 102 P.N.A.S. 19081-86 (2005).
Day-7 post-coitum timed-pregnant Swiss-Webster mice were purchased from Taconic Farms. Noon on the day the copulation plug was found was designated 0.5 days. On day E8.5 (day 9 post coitum) mice were intraperitoneally injected with 300 mg/kg of L-NAME or D-NAME (SIGMA) dissolved in sterile, apyrogenic saline solution using a dose volume of 10 ml/kg. The injection was repeated after 24 hr. Exactly 24 hr after the second injection, mice were euthanized with CO2, embryos were harvested, and a conservative dissection of the AGM was performed. Embryo trunks were dissociated with 0.1% dispase and analyzed with the methylcellulose assay. Experiments were carried out with Institutional Animal Care and Use Committee approval from Harvard Medical School or Children's Hospital, Boston.

SMILES	number of CFUs in ES-derived cultures in static conditions [1]	Runx1 expression in static cultures of ES-derived cells [2]	shear stress-induced enrichment in CFUs ([1]; shear stress, compared with cells treated with D-NAME)	reduction of the WSS-mediated increase in hematopoietic colony forming units ([1]; wall shear stress 5 dyne/cm^2, n=3, p=0.04) [%]	WSS-mediated Runx1 upregulation ([2]; CD41+/cKit+ cells exposed to shear stress, n=3)	number of CFUs per AGM (hematopoietic progenitors in the AGM region) [3]
COC(=O)[C@H](N)CCCN=C(N)N[N+](=O)[O-] [D-NAME, N(G)-nitro-D-arginine methyl ester]	do not affect; also recorded: no effect	do not affect; also recorded: no effect	–	–	–	–
COC(=O)[C@@H](N)CCCNC(=N)N[N+](=O)[O-] [L-NAME, N(G)-nitro-L-arginine methyl ester]	do not affect; also recorded: no effect	do not affect; also recorded: no effect	significant reduction	50	does not affect; also recorded: did not affect	reduction; also recorded: marked decrease
